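Interpolation was linear, between the two tested concentrations surrounding the appropriate level; five concentrations were tested over 48 hours in 96-well plates. GI50 marks 50% less growth. The concentration for full growth arrest is given as TGI.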
Legend:
Experiment in all cases: NCI anticancer screen, dose series, 48 h
[1] = system: 786-0 renal
[2] = system: A498 renal
[3] = system: A549 NSCLC
[4] = system: ACHN renal
[5] = system: BT-549 breast
[6] = system: CAKI-1 renal
[7] = system: CCRF-CEM leukemia
[8] = system: COLO 205 colon
[9] = system: DU-145 prostate
[10] = system: EKVX NSCLC
[11] = system: HCC-2998 colon
[12] = system: HCT-116 colon
[13] = system: HCT-15 colon
[14] = system: HL-60(TB) leukemia
[15] = system: HOP-62 NSCLC
[16] = system: HOP-92 NSCLC
[17] = system: HS 578T breast
[18] = system: HT29 colon
[19] = system: IGROV1 ovarian
[20] = system: K-562 leukemia
[21] = system: KM12 colon
[22] = system: LOX IMVI melanoma
[23] = system: M14 melanoma
[24] = system: MALME-3M melanoma
[25] = system: MCF7 breast
[26] = system: MDA-MB-231 breast
[27] = system: MDA-MB-435
[28] = system: MDA-MB-468 breast
[29] = system: MOLT-4 leukemia
[30] = system: NCI-H226 lung

`CN1C(=O)N(C)C2SC(N/N=C/c3cccs3)=NC21` (centres undefined) showed a GI50 [1] of 14.3 µM, a TGI [1] greater than 100 µM and a GI50 [2] of 22.7 µM. It also gave a TGI [2] greater than 100 µM, a GI50 [3] of 9.64 µM and a TGI [3] greater than 100 µM. It also gave a GI50 [4] of 12 µM, a TGI [4] greater than 100 µM and a GI50 [5] of 3.61 µM. It also gave a TGI [5] greater than 100 µM, a GI50 [6] of 4.12 µM and a TGI [6] greater than 100 µM. For the same compound, the GI50 [7] was 3.96 µM, the TGI [7] was greater than 100 µM and the GI50 [8] was 4.47 µM. For the same compound, the TGI [8] was 24.1 µM, the GI50 [9] was 30 µM and the TGI [9] was greater than 100 µM. The GI50 [10] was 7.93 µM, the TGI [10] was greater than 100 µM and the GI50 [11] was 8.21 µM. The TGI [11] was 71.9 µM, the GI50 [12] was 3.98 µM and the TGI [12] was greater than 100 µM. For the same compound, the GI50 [13] was 3.92 µM, the TGI [13] was greater than 100 µM and the GI50 [14] was 2.39 µM. It also gave a TGI [14] of 7.36 µM, a GI50 [15] of 7.45 µM and a TGI [15] greater than 100 µM. For the same compound, the GI50 [16] was greater than 100 µM, the TGI [16] was greater than 100 µM and the GI50 [17] was 2.63 µM. It also gave a TGI [17] of 9.74 µM, a GI50 [18] of 3.03 µM and a TGI [18] of 11.5 µM. It also gave a GI50 [19] of 5.58 µM, a TGI [19] greater than 100 µM and a GI50 [20] of 2.96 µM. For the same compound, the TGI [20] was greater than 100 µM, the GI50 [21] was 4.97 µM and the TGI [21] was greater than 100 µM. The GI50 [22] was 5.26 µM, the TGI [22] was greater than 100 µM and the GI50 [23] was 3.32 µM. For the same compound, the TGI [23] was greater than 100 µM, the GI50 [24] was 3.83 µM and the TGI [24] was greater than 100 µM. It also gave a GI50 [25] of 3.98 µM, a TGI [25] greater than 100 µM and a GI50 [26] of 4.89 µM. It also gave a TGI [26] of 88.3 µM, a GI50 [27] of 1.58 µM and a TGI [27] of 4.18 µM. It also gave a GI50 [28] of 1.89 µM, a TGI [28] of 5.47 µM and a GI50 [29] of 4.26 µM. For the same compound, the TGI [29] was greater than 100 µM and the GI50 [30] was 7.53 µM.

— PubChem BioAssay (NCI)
